From patent US20160002204A1 (Board of Regents, The University of Texas System, priority 2014, published 2016)

What was measured:
[1] = target: T1, GLS1 (purified recombinant human GAC) (Homo sapiens, UniProt O94925); test: GLS1 enzymatic activity assay (dual-coupled, Amplex UltraRed/resorufin); assay type: biochemical
T1 sequence (O94925 55-598 isoform O94925-3 limits assumed): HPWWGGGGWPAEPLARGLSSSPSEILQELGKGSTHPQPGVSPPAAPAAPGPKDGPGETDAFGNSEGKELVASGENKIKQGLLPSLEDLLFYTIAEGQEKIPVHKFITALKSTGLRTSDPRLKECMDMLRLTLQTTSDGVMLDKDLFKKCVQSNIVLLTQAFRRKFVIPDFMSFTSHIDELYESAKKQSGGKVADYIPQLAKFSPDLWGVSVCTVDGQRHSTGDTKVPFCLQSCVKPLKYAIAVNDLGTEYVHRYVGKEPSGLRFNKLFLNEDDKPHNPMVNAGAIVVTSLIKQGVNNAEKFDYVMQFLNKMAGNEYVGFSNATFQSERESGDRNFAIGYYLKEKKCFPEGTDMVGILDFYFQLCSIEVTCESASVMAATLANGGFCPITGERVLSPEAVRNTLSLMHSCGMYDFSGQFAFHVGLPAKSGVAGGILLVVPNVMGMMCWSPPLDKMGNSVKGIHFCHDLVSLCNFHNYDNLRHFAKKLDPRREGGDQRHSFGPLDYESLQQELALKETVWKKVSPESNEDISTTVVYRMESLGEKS
Outline: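 Recombinant human GAC (2 nM) preincubated with 50 mM potassium phosphate, then inhibitor (10 min each, RT); 1 mM glutamine, pH 7.4 Hepes buffer, 1% DMSO. Glutamate coupled via glutamate oxidase/HRP to resorufin (Ex 530/Em 590), kinetic or 20-min endpoint; IC50 by four-parameter logistic fit.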

A549 cells = test: A549 proliferation (viability) assay, Cell Titer Fluor, 72 hours; assay type: cell-based; conditions: Homo sapiens
Outline: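 Compound was added to A549 cells (1000/well, pre-grown 24 h in RPMI 1640 plus 10% dialyzed FBS) at 0.5% DMSO and left 72 h under 37 °C, 5% CO2, ambient O2. Live-cell fluorescence (Cell Titer Fluor) gave the EC50.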

| SMILES | IC50 [1] | EC50 (A549 cells) |
| --- | --- | --- |
| O=C(CC1CCC1)Nc1ccn(CCC(F)Cn2cc(C(=O)NCc3cccc(OC(F)(F)F)c3)nn2)c(=O)c1F (stereo not drawn) [Example 339, 1-{4-[4-(2-cyclobutylacetamido)-3-fluoro-2-oxo-1,2-dihydropyridin-1-yl]-2-fluorobutyl}-N-{[3-(trifluoromethoxy)phenyl]methyl}-1H-1,2,3-triazole-4-carboxamide] | < 100 nM | < 100 nM |
| O=C(Cc1cccc(OC(F)(F)F)c1)Nc1ccc(CCCCn2ccc(NC(=O)CCN3CCCC3)nc2=O)nn1 [Example 109, N-{2-oxo-1-[4-(6-{2-[3-(trifluoromethoxy)phenyl]acetamido}pyridazin-3-yl)butyl]-1,2-dihydropyrimidin-4-yl}-3-(pyrrolidin-1-yl)propanamide] | 100 to 500 nM | 500 to 5000 nM |
| O=C(CN1CCCC(F)C1)Nc1ccn(CCC(F)Cn2cc(C(=O)NCc3cccc(OC(F)(F)F)c3)nn2)c(=O)c1F (stereo not drawn) [Example 291, 1-(2-fluoro-4-{3-fluoro-4-[2-(3-fluoropiperidin-1-yl)acetamido]-2-oxo-1,2-dihydropyridin-1-yl}butyl)-N-{[3-(trifluoromethoxy)phenyl]methyl}-1H-1,2,3-triazole-4-carboxamide] | < 100 nM | < 100 nM |
| O=C(CC1CCCC1)Nc1ccn(CCC(F)Cn2cc(C(=O)NCc3ccccn3)nn2)c(=O)c1F (stereo not drawn) [Example 393, 1-{4-[4-(2-cyclopentylacetamido)-3-fluoro-2-oxo-1,2-dihydropyridin-1-yl]-2-fluorobutyl}-N-(pyridin-2-ylmethyl)-1H-1,2,3-triazole-4-carboxamide] | < 100 nM | < 100 nM |
| O=C(NCc1cccc(OC(F)(F)F)c1)c1cn(CC(F)CCn2ccc(COc3c(F)cccc3F)cc2=O)nn1 (stereo not drawn) [Example 474, 1-{4-[4-(2,6-difluorophenoxymethyl)-2-oxo-1,2-dihydropyridin-1-yl]-2-fluorobutyl}-N-{[3-(trifluoromethoxy)phenyl]methyl}-1H-1,2,3-triazole-4-carboxamide] | < 100 nM | 100 to 500 nM |
| O=C(Nc1ccn(CCC(F)Cn2cc(C(=O)NCc3cc(C(F)(F)F)ccn3)nn2)c(=O)c1F)C(=O)N1CCCCC1 (stereo not drawn) [Example 423, 1-(2-fluoro-4-{3-fluoro-2-oxo-4-[2-oxo-2-(piperidin-1-yl)acetamido]-1,2-dihydropyridin-1-yl}butyl)-N-{[4-(trifluoromethyl)pyridin-2-yl]methyl}-1H-1,2,3-triazole-4-carboxamide] | < 100 nM | 100 to 500 nM |
| CC1CN(CC(=O)Nc2ccn(CCC(F)Cn3cc(C(=O)NCc4cccc(OC(F)(F)F)c4)nn3)c(=O)c2)CCO1 (stereo not drawn) [Example 278, 1-(2-fluoro-4-{4-[2-(2-methylmorpholin-4-yl)acetamido]-2-oxo-1,2-dihydropyridin-1-yl}butyl)-N-{[3-(trifluoromethoxy)phenyl]methyl}-1H-1,2,3-triazole-4-carboxamide] | < 100 nM | 100 to 500 nM |
| CC(C)(C)OC(=O)NCc1cccc(CC(=O)Nc2ccn(CCCCc3nnc(NC(=O)Cc4ccccc4)s3)c(=O)n2)c1 [Example 85, tert-butyl N-[(3-{[(2-oxo-1-{4-[5-(2-phenylacetamido)-1,3,4-thiadiazol-2-yl]butyl}-1,2-dihydropyrimidin-4-yl)carbamoyl]methyl}phenyl)methyl] carbamate] | < 100 nM | 100 to 500 nM |
| O=C(NCc1cccc(C(F)(F)F)c1)c1cn(CCCCn2ccc(NC(=O)C3CCCCC3)cc2=O)nn1 [Example 152, 1-[4-(4-cyclohexaneamido-2-oxo-1,2-dihydropyridin-1-yl)butyl]-N-{[3-(trifluoromethyl)phenyl]methyl}-1H-1,2,3-triazole-4-carboxamide] | < 100 nM | 100 to 500 nM |
| O=C(Cc1ccccc1)Nc1ccn(CCC(F)Cn2cc(C(=O)NCc3ncccc3F)nn2)c(=O)c1F (stereo not drawn) [Example 373, 1-{2-fluoro-4-[3-fluoro-2-oxo-4-(2-phenylacetamido)-1,2-dihydropyridin-1-yl]butyl}-N-[(3-fluoropyridin-2-yl)methyl]-1H-1,2,3-triazole-4-carboxamide] | 100 to 500 nM | 500 to 5000 nM |
| O=C(CN1CC(F)(F)C1)Nc1ccn(CCC(F)Cn2cc(C(=O)NCc3cccc(OC(F)(F)F)c3)nn2)c(=O)c1 (stereo not drawn) [Example 232, 1-(4-{4-[2-(3,3-difluoroazetidin-1-yl)acetamido]-2-oxo-1,2-dihydropyridin-1-yl}-2-fluorobutyl)-N-{[3-(trifluoromethoxy)phenyl]methyl}-1H-1,2,3-triazole-4-carboxamide] | < 100 nM | 100 to 500 nM |
| O=C(Nc1ccn(CCC(F)Cn2cc(C(=O)NCc3cccc(OC(F)(F)F)c3)nn2)c(=O)n1)OC1CCC1 (stereo not drawn) [Example 385, cyclobutyl N-(1-{3-fluoro-4-[4-({[3-(trifluoromethoxy)phenyl]methyl}carbamoyl)-1H-1,2,3-triazol-1-yl]butyl}-2-oxo-1,2-dihydro-pyrimidin-4-yl)carbamate] | < 100 nM | 100 to 500 nM |
| C[C@H](C(=O)Nc1ccn(CCC(F)Cn2cc(C(=O)NCc3ccc(C(F)(F)F)nc3)nn2)c(=O)c1F)c1ccccc1 (stereo partly drawn) [Example 368, 1-(2-fluoro-4-{3-fluoro-2-oxo-4-[(2S)-2-phenylpropanamido]-1,2-dihydropyridin-1-yl}butyl)-N-{[6-(trifluoromethyl)pyridin-3-yl]methyl}-1H-1,2,3-triazole-4-carboxamide] | < 100 nM | < 100 nM |
| O=C(CC1CCCCO1)Nc1ccn(CCC(F)Cn2cc(C(=O)NCc3cccc(OC(F)(F)F)c3)nn2)c(=O)c1 (stereo not drawn) [Example 187, 1-(2-fluoro-4-{4-[2-(oxan-2-yl)acetamido]-2-oxo-1,2-dihydropyridin-1-yl}butyl)-N-{[3-(trifluoromethoxy)phenyl]methyl}-1H-1,2,3-triazole-4-carboxamide] | < 100 nM | < 100 nM |
| O=C(Cc1ccccc1)Nc1ccc(CCCCn2ccc(NC(=O)NC3CCCCC3)nc2=O)nn1 [Example 88, N-[6-(4-{4-[(cyclohexylcarbamoyl)amino]-2-oxo-1,2-dihydropyrimidin-1-yl}butyl)pyridazin-3-yl]-2-phenylacetamide] | 100 to 500 nM | 500 to 5000 nM |
| Cc1ccc(CNC(=O)c2cn(CC(F)CCn3ccc(NC(=O)Cc4ccccc4)cc3=O)nn2)cn1 (stereo not drawn) [Example 150, 1-{2-fluoro-4-[2-oxo-4-(2-phenylacetamido)-1,2-dihydropyridin-1-yl]butyl}-N-[(6-methylpyridin-3-yl)methyl]-1H-1,2,3-triazole-4-carboxamide] | 100 to 500 nM | > 5000 nM |
| O=C(Cc1ccccc1)Nc1ccc(CCCCn2ccc(NC(=O)[C@H](O)c3ccccc3)nc2=O)nn1 [Example 100, (2R)-2-hydroxy-N-(2-oxo-1-{4-[6-(2-phenylacetamido)pyridazin-3-yl]butyl}-1,2-dihydropyrimidin-4-yl)-2-phenylacetamide] | < 100 nM | 500 to 5000 nM |
| O=C(Nc1ccn(CCC(F)Cn2cc(C(=O)NCc3cccc(OC(F)(F)F)c3)nn2)c(=O)c1F)OC1CCCCC1 (stereo not drawn) [Example 346, cyclohexyl N-(3-fluoro-1-{3-fluoro-4-[4-({[3-(trifluoro-methoxy)phenyl]methyl}carbamoyl)-1H-1,2,3-triazol-1-yl]butyl}-2-oxo-1,2-dihydropyridin-4-yl)carbamate] | < 100 nM | < 100 nM |
